Measurements: ChEMBL document CHEMBL2396652 (Bioorg Med Chem Lett, 2013)
The source made the active and inactive calls. The rule behind the calls is not given here.

Legend:
Mu-type opioid receptor [1] = molecular target: T1, Mu-type opioid receptor (Homo sapiens, UniProt P35372); test: Agonist activity at mu opioid receptor (unknown origin) expressed CHO cells assessed as stimulation of [35S]-GTP[gammaS] binding at 10 uM relative to DAMGO; type: cell-based
Homo sapiens [2] = species: Homo sapiens; test: Selectivity ratio of Ki for kappa opioid receptor (unknown origin) to Ki for mu opioid receptor (unknown origin)
Homo sapiens [3] = species: Homo sapiens; test: Selectivity ratio of Ki for delta opioid receptor (unknown origin) to Ki for mu opioid receptor (unknown origin)
Mu-type opioid receptor [4] = molecular target: T1, Mu-type opioid receptor; test: Antagonist activity at mu opioid receptor (unknown origin) expressed CHO cells assessed as inhibition of [35S]-GTP[gammaS] binding; type: cell-based
Mu-type opioid receptor [5] = molecular target: T1, Mu-type opioid receptor; test: Agonist activity at mu opioid receptor (unknown origin) expressed CHO cells assessed as stimulation of [35S]-GTP[gammaS] binding; type: cell-based
Mu-type opioid receptor [6] = molecular target: T1, Mu-type opioid receptor; test: Agonist activity at mu opioid receptor (unknown origin) expressed CHO cells assessed as stimulation of [35S]-GTP[gammaS] binding relative to DAMGO; type: cell-based

T1 sequence (P35372 whole entry): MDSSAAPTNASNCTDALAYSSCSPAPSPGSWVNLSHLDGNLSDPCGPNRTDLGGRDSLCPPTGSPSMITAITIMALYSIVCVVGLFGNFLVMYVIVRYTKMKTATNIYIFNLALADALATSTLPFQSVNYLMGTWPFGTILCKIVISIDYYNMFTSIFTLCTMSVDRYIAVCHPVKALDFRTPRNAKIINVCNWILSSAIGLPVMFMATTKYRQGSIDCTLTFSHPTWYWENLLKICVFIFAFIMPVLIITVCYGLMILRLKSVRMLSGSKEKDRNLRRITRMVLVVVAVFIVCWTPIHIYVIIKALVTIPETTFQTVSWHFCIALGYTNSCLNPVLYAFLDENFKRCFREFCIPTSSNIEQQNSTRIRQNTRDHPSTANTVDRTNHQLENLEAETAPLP

O=C(N[C@@]12CCC(=O)[C@@H]3Oc4c(O)ccc5c4[C@@]31CCN(CC1CC1)[C@@H]2C5)c1ccccn1
Emax (Mu-type opioid receptor [1]): 0.9% | Ratio Ki (Homo sapiens [2]): 0.24 | Ratio Ki (Homo sapiens [3]): 63 | inhibition (Mu-type opioid receptor [4]): Active

O=C(N[C@@]12CCC(=O)[C@@H]3Oc4c(O)ccc5c4[C@@]31CCN(CC1CC1)[C@@H]2C5)c1cc2ccccc2cn1
Emax (Mu-type opioid receptor [1]): 2.84% | Ratio Ki (Homo sapiens [2]): 0.07 | Ratio Ki (Homo sapiens [3]): 7.2 | inhibition (Mu-type opioid receptor [4]): Active

O=C(N[C@@]12CCC(=O)[C@@H]3Oc4c(O)ccc5c4[C@@]31CCN(CC1CC1)[C@@H]2C5)c1ccncc1
Ratio Ki (Homo sapiens [2]): 0.4 | EC50 (Mu-type opioid receptor [5]): 1.67 nM | Emax (Mu-type opioid receptor [6]): 7.74% | Ratio Ki (Homo sapiens [3]): 13

COc1cccc2c1[C@]13CCN(CC4CC4)[C@H](C2)[C@]1(OC)CCC(=O)C3
Ratio Ki (Homo sapiens [2]): 45 | Ratio Ki (Homo sapiens [3]): 40

O=C(N[C@@]12CCC(=O)[C@@H]3Oc4c(O)ccc5c4[C@@]31CCN(CC1CC1)[C@@H]2C5)c1ccc2ccccc2n1
Ratio Ki (Homo sapiens [2]): 0.03 | EC50 (Mu-type opioid receptor [5]): 38.8 nM | Emax (Mu-type opioid receptor [6]): 34.4% | Ratio Ki (Homo sapiens [3]): 1.7

O=C(N[C@@]12CCC(=O)[C@@H]3Oc4c(O)ccc5c4[C@@]31CCN(CC1CC1)[C@@H]2C5)c1cccnc1
Emax (Mu-type opioid receptor [1]): 5.09% | Ratio Ki (Homo sapiens [2]): 0.21 | Ratio Ki (Homo sapiens [3]): 53 | inhibition (Mu-type opioid receptor [4]): Active

O=C(N[C@@]12CCC(=O)[C@@H]3Oc4c(O)ccc5c4[C@@]31CCN(CC1CC1)[C@@H]2C5)c1ccccc1
Ratio Ki (Homo sapiens [2]): 0.03 | EC50 (Mu-type opioid receptor [5]): 7.2 nM | Emax (Mu-type opioid receptor [6]): 5.79% | Ratio Ki (Homo sapiens [3]): 13

O=C(N[C@@]12CCC(=O)[C@@H]3Oc4c(O)ccc5c4[C@@]31CCN(CC1CC1)[C@@H]2C5)c1ccc2ccccc2c1
Ratio Ki (Homo sapiens [2]): 0.05 | EC50 (Mu-type opioid receptor [5]): 11.1 nM | Emax (Mu-type opioid receptor [6]): 16.5% | Ratio Ki (Homo sapiens [3]): 1.7

O=C(N[C@@]12CCC(=O)[C@@H]3Oc4c(O)ccc5c4[C@@]31CCN(CC1CC1)[C@@H]2C5)c1cnc2ccccc2c1
Ratio Ki (Homo sapiens [2]): 0.12 | EC50 (Mu-type opioid receptor [5]): 2.81 nM | Emax (Mu-type opioid receptor [6]): 15.8% | Ratio Ki (Homo sapiens [3]): 1.3
